Where two headings read alike, the source gives them in different places.

We go through 19 compounds from patent US20240327381A1, “Compounds and Compositions for Selective Degradation of Engineered Proteins” (Celgene Corporation, priority 2023, published 2024).

One test has as its target T1, Helios (Homo sapiens, UniProt Q9UKS7).
T1 construct: endogenous in cells; host or cells: Jurkat cells, CRISPR/Cas9 knock-in of HiBit at the IKZF2 locus
As to the kind of experiment: Helios degradation in Jurkat/Helios/HiBit cells (Nano-Glo luminescence). As to conditions: 18 hr, read-out: Helios Jurkat Hibit IC50. The class given is cell-based. On the procedure:
For Helios, a stable Jurkat cell line was engineered using CRISPR/Cas9 to insert an in-frame HiBit tag into the carboxy-terminal reading frame of the IKZF2 gene. The sequence of human Helios is shown below:
Test compounds were transferred to 1536 well plates using an acoustic dispenser, and Jurkat/Helios/HiBit cells in DMEM/10% FCS were plated at 10,000 cells/well in a final volume of 5 μL. Cells were incubated at 37 C, 95% RH for 18 hr. Luciferase activity was measured by adding 2 μL/well of Nano-Glo reagent (Promega), incubating at RT for 30 min, and reading luminescence on a microtiter plate reader.
(§1) To determine the EC50 value of a compound for the degradation of a given substrate (concentration of compound that achieves half the maximum degradation observed), a four-parameter logistic model (sigmoidal dose-response model) (FIT=(A+{(B−A)/1+[(C/x)D]})) where C is the inflection point (EC50), D is the […], and A and B are the low and high limits of the fit, respectively) was used. All substrate degradation curves were processed and evaluated using ActivityBase (IDBS), a data analysis software package. Ymax is the % protein degraded (Ymin=100−Ymax and is minimum percent protein remaining).

Test [1] has as its target T2, IKZF1 ZNF2_ZNF3 Q1F degron-tagged CD19 CAR (Homo sapiens, UniProt Q13422, Q146F).
T2 construct: ZNF2_ZNF3 Q1F degron (GERPFFCNQCGASFTQKGNLLRHIKLHSGEKPFKCHLCNYACRRRDALTGHLRTHS); fused on or other part: anti-CD19 scFv, CD28 transmembrane domain, 4-1BB costimulatory domain, CD3 zeta signaling domain (the CAR that carries the degron), and Nluc
Description: Degradation of Q1F degron-tagged CD19 CAR in Jurkat cells (flow cytometry of CAR levels). The class given is cell-based. The settings on record: for DC50: Jurkat cells expressing CD19 CAR tagged with IKZF1 ZNF2_ZNF3 Q1F, 18 hours at 37° C., CAR levels normalized to untreated cells, read-out: Q1F Jurkat IC50; for Dmax: read-out: Q1F Jurkat-YMax.
Excerpt: Q1F degron-targeting compounds were screened in Jurkat cells engineered to express a IKZF1 ZNF2_ZNF3 Q1F. The cell line was generated with lentiviral vectors containing CD19 CARs tagged with IKZF1 ZNF2_ZNF3 QIF Nluc, which were transduced into Jurkat cells. The CD19 CAR comprised an anti-CD19 scFv, a CD28 transmembrane domain, a 4-1BB costimulatory domain, a CD3ζ signaling domain, and a ZNF2_ZNF3 Q1F degron (GERPFFCNQCGASFTQKGNLLRHIKLHSGEKPFKCHLCNYACRRRDALTGHLRTHS; SEQ ID NO: 1; Q1F substitution underlined). Transduced cells were treated with a titration of each small molecule or no drug and then incubated at 37° C. for 18 hours. Cells were washed and stained with appropriate staining reagent to measure CAR levels. The cells were incubated at 4° C. in the staining reagents for 20 mins and then washed 3 times before being read on the flow cytometer. CAR levels were normalized to cells that had not been treated with drug. EC50 and Ymin values were calculated using the resulting titration curve. This identified small molecules that potently degraded the Q1F degron-tagged CARs (Table 1).
as §1
(In general: Flow cytometry measures light scatter and fluorescence of single cells or particles in a stream.)

[2] abbreviates: Ymax is the % protein degraded, Jurkat cells expressing Q1F degron-tagged CD19 CAR, 18 hours.

T1 sequence (Q9UKS7 whole entry): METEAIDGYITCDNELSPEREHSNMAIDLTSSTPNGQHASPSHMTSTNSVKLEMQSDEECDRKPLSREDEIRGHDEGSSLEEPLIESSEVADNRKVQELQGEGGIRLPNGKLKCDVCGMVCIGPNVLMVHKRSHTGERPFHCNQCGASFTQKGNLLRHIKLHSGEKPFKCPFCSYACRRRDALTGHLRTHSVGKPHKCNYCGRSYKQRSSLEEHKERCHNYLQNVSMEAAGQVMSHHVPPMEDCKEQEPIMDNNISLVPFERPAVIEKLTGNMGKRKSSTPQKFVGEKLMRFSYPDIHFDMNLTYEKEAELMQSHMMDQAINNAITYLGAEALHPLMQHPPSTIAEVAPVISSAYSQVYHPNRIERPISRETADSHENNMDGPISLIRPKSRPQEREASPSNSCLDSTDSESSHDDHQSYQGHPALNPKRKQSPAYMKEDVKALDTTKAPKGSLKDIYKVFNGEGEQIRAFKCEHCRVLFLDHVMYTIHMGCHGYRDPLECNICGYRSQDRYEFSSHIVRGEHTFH
T1 sequence (Q96SW2 whole entry, further chain): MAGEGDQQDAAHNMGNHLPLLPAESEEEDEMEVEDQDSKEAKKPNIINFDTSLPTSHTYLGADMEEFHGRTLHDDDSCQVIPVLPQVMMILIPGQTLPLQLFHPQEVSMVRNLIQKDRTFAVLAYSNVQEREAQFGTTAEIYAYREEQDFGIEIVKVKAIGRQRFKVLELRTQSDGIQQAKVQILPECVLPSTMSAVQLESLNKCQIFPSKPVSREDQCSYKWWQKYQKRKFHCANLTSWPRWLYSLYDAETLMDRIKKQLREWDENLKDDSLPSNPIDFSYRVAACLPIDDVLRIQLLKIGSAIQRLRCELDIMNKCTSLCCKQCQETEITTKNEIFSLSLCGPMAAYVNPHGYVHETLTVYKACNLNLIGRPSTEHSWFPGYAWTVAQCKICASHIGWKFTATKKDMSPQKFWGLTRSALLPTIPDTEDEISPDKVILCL
T1 sequence (Q16531 whole entry partner): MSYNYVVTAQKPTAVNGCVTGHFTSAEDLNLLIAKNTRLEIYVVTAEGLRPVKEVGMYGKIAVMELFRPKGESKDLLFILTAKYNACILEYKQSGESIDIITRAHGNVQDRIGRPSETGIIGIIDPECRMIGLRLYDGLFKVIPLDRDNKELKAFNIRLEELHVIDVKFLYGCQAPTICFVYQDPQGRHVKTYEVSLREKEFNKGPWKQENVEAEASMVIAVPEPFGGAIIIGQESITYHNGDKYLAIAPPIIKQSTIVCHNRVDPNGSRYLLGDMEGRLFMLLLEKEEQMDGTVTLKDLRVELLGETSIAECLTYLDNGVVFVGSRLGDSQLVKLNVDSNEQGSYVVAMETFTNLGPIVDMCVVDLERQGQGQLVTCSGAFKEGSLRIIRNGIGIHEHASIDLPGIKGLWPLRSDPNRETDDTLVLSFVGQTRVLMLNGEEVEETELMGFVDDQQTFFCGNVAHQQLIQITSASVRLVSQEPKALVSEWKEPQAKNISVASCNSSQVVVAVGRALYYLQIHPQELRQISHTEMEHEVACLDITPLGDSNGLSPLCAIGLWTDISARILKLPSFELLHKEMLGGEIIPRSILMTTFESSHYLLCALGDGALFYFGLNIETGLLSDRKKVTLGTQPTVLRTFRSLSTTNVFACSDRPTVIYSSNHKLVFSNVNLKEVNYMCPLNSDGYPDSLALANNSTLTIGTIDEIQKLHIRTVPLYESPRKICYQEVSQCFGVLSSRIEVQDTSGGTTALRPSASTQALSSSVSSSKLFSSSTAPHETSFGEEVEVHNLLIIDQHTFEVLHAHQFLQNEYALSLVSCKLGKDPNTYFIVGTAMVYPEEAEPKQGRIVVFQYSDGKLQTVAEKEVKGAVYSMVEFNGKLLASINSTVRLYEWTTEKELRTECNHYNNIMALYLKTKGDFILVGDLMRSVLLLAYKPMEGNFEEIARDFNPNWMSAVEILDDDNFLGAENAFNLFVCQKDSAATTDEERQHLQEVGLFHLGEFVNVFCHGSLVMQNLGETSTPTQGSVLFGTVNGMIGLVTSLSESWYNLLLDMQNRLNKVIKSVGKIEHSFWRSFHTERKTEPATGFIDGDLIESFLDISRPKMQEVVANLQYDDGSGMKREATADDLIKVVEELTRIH
T2 sequence (Q13422 whole entry Q146F, the tested form may be a part): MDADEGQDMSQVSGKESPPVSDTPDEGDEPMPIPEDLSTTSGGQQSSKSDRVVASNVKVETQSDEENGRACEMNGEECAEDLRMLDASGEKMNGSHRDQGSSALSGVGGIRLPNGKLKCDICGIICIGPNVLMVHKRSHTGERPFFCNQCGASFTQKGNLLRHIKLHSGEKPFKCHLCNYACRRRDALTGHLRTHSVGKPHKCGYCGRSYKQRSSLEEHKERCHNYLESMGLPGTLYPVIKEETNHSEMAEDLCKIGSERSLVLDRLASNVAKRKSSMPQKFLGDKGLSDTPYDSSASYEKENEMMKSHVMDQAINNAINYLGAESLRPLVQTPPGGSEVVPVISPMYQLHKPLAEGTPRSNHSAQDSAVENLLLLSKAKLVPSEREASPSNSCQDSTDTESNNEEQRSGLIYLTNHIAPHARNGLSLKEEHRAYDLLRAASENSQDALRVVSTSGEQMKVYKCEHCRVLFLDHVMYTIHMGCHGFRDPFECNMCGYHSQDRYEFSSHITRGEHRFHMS

Take `COCCOCCN1CCC(c2c(F)cc3c(c2F)CN(C2CCC(=O)NC2=O)C3=O)CC1` (stereo not drawn) [Compound 100, 3-(4,6-difluoro-5-(1-(2-(2-methoxyethoxy)ethyl)piperidin-4-yl)-1-oxoisoindolin-2-yl)piperidine-2,6-dione]: the results for the DC50 (at Helios; in test [1]) were ≥ 10 µM and 22.6 nM, respectively. For the same compound, the Dmax in test [1] (setting [2]) amounted to 75.5%.

In the case of `CS(=O)(=O)c1ccc(CN2CCC(c3cc4c(cc3F)C(=O)N(C3CCC(=O)NC3=O)C4)CC2)cc1` (stereo not drawn) [Compound 90, 3-(6-fluoro-5-(1-(4-(methylsulfonyl)benzyl)piperidin-4-yl)-1-oxoisoindolin-2-yl)piperidine-2,6-dione], the DC50 on Helios was ≥ 10 µM; in test [1] it was 4.68 nM. Besides, the Dmax in test [1] (setting [2]) is 93.1%.

For `O=C1CCC(N2Cc3c(cc(F)c(C(=O)N4Cc5cccnc5C4)c3F)C2=O)C(=O)N1` (stereo not drawn) [Compound 77, 3-(5-(6,7-dihydro-5H-pyrrolo[3,4-b]pyridine-6-carbonyl)-4,6-difluoro-1-oxoisoindolin-2-yl)piperidine-2,6-dione], the DC50 is ≥ 10 µM on Helios and 14.8 nM in test [1]. For the same compound, in test [1] (setting [2]), the Dmax came out at 94.8%.

Take `Cc1ccc(CN2CCC(O)(c3c(F)cc4c(c3F)CN(C3CCC(=O)NC3=O)C4=O)CC2)cc1F` (stereo not drawn) [Compound 28, 3-(4,6-difluoro-5-(1-(3-fluoro-4-methylbenzyl)-4-hydroxypiperidin-4-yl)-1-oxoisoindolin-2-yl)piperidine-2,6-dione]: the DC50 was ≥ 10 µM at Helios and 4.78 nM in test [1]. Also, the Dmax in test [1] (setting [2]) came out at 79.4%.

Turning to `CC(C)CCN1CCC(c2c(F)cc3c(c2F)CN(C2CCC(=O)NC2=O)C3=O)CC1` (stereo not drawn) [Compound 113, 3-(4,6-difluoro-5-(1-isopentylpiperidin-4-yl)-1-oxoisoindolin-2-yl)piperidine-2,6-dione], the DC50 is ≥ 10 µM on Helios and 2.73 nM in test [1]. Also, the Dmax in test [1] (setting [2]) was 82.5%.

Take `CC(C)CN1CCC(c2c(F)cc3c(c2F)CN(C2CCC(=O)NC2=O)C3=O)CC1` (stereo not drawn) [Compound 95, 3-(4,6-difluoro-5-(1-isobutylpiperidin-4-yl)-1-oxoisoindolin-2-yl)piperidine-2,6-dione]: the DC50 on Helios is ≥ 10 µM; in test [1] it was 10.5 nM. For the same compound, the Dmax in test [1] (setting [2]) is 84.5%.

In the case of `O=C1CCC(N2Cc3c(cc(F)c(C4CCN(Cc5ccc6ccccc6n5)CC4)c3F)C2=O)C(=O)N1` (stereo not drawn) [Compound 53, 3-(4,6-difluoro-1-oxo-5-(1-(quinolin-2-ylmethyl)piperidin-4-yl)isoindolin-2-yl)piperidine-2,6-dione], the values for the DC50 (at Helios; in test [1]) were ≥ 10 µM and 0.727 nM, respectively. Also, the Dmax in test [1] (setting [2]) came out at 93.3%.

Turning to `O=C1CCC(N2Cc3c(cc(F)c(C4CCN(Cc5ccc6ncsc6c5)CC4)c3F)C2=O)C(=O)N1` (stereo not drawn) [Compound 18, 3-(5-(1-(benzo[d]thiazol-6-ylmethyl)piperidin-4-yl)-4,6-difluoro-1-oxoisoindolin-2-yl) piperidine-2,6-dione], the DC50 is ≥ 10 µM on Helios and 0.576 nM in test [1]. For the same compound, the Dmax in test [1] (setting [2]) came out at 93.4%.

For `O=C1CCC(N2Cc3c(cc(F)c(C4CCN(C5CCCCC5)CC4)c3F)C2=O)C(=O)N1` (stereo not drawn) [Compound 97, 3-(5-(1-cyclohexylpiperidin-4-yl)-4,6-difluoro-1-oxoisoindolin-2-yl)piperidine-2,6-dione], the DC50 on Helios was ≥ 10 µM; in test [1], 3.88 nM. Moreover, the Dmax in test [1] (setting [2]) was 88.3%.

Take `O=C1CCC(N2Cc3c(cc(F)c(C4CCN(C5CCC5)CC4)c3F)C2=O)C(=O)N1` (stereo not drawn) [Compound 3, 3-(5-(1-cyclobutylpiperidin-4-yl)-4,6-difluoro-1-oxoisoindolin-2-yl)piperidine-2,6-dione]: the DC50 at Helios is ≥ 10 µM; in test [1], 4.37 nM. In addition, the Dmax in test [1] (setting [2]) was 78.7%.

As for `COc1cccc(CN2CCC(O)(c3c(F)cc4c(c3F)CN(C3CCC(=O)NC3=O)C4=O)CC2)n1` (stereo not drawn) [Compound 38, 3-(4,6-difluoro-5-(4-hydroxy-1-((6-methoxypyridin-2-yl)methyl)piperidin-4-yl)-1-oxoisoindolin-2-yl)piperidine-2,6-dione], the DC50 is ≥ 10 µM on Helios and 24.5 nM in test [1]. In test [1] (setting [2]), the Dmax was found to be 70.7%.

In the case of `O=C1CCC(N2Cc3c(cc(F)c(C4CCN(Cc5nc(C6CC6)cs5)CC4)c3F)C2=O)C(=O)N1` (stereo not drawn) [Compound 104, 3-(5-(1-((4-cyclopropylthiazol-2-yl)methyl)piperidin-4-yl)-4,6-difluoro-1-oxoisoindolin-2-yl)piperidine-2,6-dione], the DC50 at Helios is ≥ 10 µM; in test [1], 30.9 nM. Also, in test [1] (setting [2]), the Dmax stood at 83.6%.

`O=C1CCC(N2Cc3c(cc(F)c(-c4ccc5c(n4)NCCC5)c3F)C2=O)C(=O)N1` (stereo not drawn) [Compound 94, 3-(4,6-difluoro-1-oxo-5-(5,6,7,8-tetrahydro-1,8-naphthyridin-2-yl)isoindolin-2-yl) piperidine-2,6-dione]: the DC50 on Helios is ≥ 10 µM; in test [1], 655 nM. In test [1] (setting [2]), the Dmax stood at 60.9%.

As for `COc1ccc(CN2CCC(O)(c3c(F)cc4c(c3F)CN(C3CCC(=O)NC3=O)C4=O)CC2)nc1` (stereo not drawn) [Compound 37, 3-(4,6-difluoro-5-(4-hydroxy-1-((5-methoxypyridin-2-yl)methyl)piperidin-4-yl)-1-oxoisoindolin-2-yl)piperidine-2,6-dione], the results for the DC50 (on Helios; in test [1]) were ≥ 10 µM and 33.2 nM, respectively. The Dmax in test [1] (setting [2]) turned out to be 62.5%.

Regarding `Cc1cc(-c2c(F)cc3c(c2F)CN(C2CCC(=O)NC2=O)C3=O)nc(N)c1C` (stereo not drawn) [Compound 93, 3-(5-(6-amino-4,5-dimethylpyridin-2-yl)-4,6-difluoro-1-oxoisoindolin-2-yl) piperidine-2,6-dione], the DC50 on Helios was ≥ 10 µM; in test [1], 217 nM. Moreover, the Dmax in test [1] (Jurkat, 18 h) was 69.1%.

Consider `CN(CCN1CCC(c2cc3c(cc2F)C(=O)N(C2CCC(=O)NC2=O)C3)CC1)Cc1ccccc1` (stereo not drawn) [Compound 80, 3-(5-(1-(2-(benzyl(methyl)amino)ethyl)piperidin-4-yl)-6-fluoro-1-oxoisoindolin-2-yl)piperidine-2,6-dione], for which the DC50 was ≥ 10 µM at Helios and 0.533 nM in test [1]. Further, the Dmax in test [1] (setting [2]) was determined as 85.1%.

Consider `Cn1cnc2ccc(CN3CCC(c4c(F)cc5c(c4F)CN(C4CCC(=O)NC4=O)C5=O)CC3)cc21` (stereo not drawn) [Compound 106, 3-(4,6-difluoro-5-(1-((1-methyl-1H-benzo[d]imidazol-6-yl)methyl)piperidin-4-yl)-1-oxoisoindolin-2-yl)piperidine-2,6-dione], for which the values for the DC50 (on Helios; in test [1]) were ≥ 10 µM and 0.698 nM, respectively. The Dmax in test [1] (setting [2]) is 91.8%.

With `O=C1CCC(N2Cc3c(cc(F)c(C4CCN(Cc5ccncc5)CC4)c3F)C2=O)C(=O)N1` (stereo not drawn) [Compound 117, 3-(4,6-difluoro-1-oxo-5-(1-(pyridin-4-ylmethyl)piperidin-4-yl)isoindolin-2-yl)piperidine-2,6-dione], the DC50 was ≥ 10 µM at Helios and 6.26 nM in test [1]. For the same compound, the Dmax in test [1] (setting [2]) stood at 86.1%.

As for `O=C1CCC(N2Cc3c(cc(F)c(C4(O)CCN(Cc5ccccc5C(F)(F)F)CC4)c3F)C2=O)C(=O)N1` (stereo not drawn) [Compound 32, 3-(4,6-difluoro-5-(4-hydroxy-1-(2-(trifluoromethyl)benzyl)piperidin-4-yl)-1-oxoisoindolin-2-yl)piperidine-2,6-dione], the values for the DC50 (on Helios; in test [1]) were ≥ 10 µM and 9.54 nM, respectively. Besides, the Dmax in test [1] (setting [2]) was 80.2%.
